Assay results from patent publication EP0813867B1, “Retroviral protease inhibitors” (priority 1990, dated 1992).
pEC50, pIC50: −log10 of the molar value. Where two headings read alike, the source gives them in different places.

Columns and labels:
HIV-1 = assay: HIV inhibition assay of acutely infected CEM cells (tetrazolium based colorimetric, MTT); details: Human immunodeficiency virus 1, CCRF-CEM, 168 h
Description: The HIV inhibition assay method of acutely infected cells is an automated tetrazolium based colorimetric assay essentially that reported by Pauwles et al, J. Virol. […] Assays were performed in 96-well tissue culture plates. CEM cells, a CD4^+ cell line, were grown in RPMI-1640 medium (Gibco) supplemented with a 10% fetal calf serum and were then treated with polybrene (2µg/ml). An 80 µl volume of medium containing 1 x 10^4 cells was dispensed into each well of the tissue culture plate. To each well was added a 100µl volume of test compound dissolved in tissue culture medium (or medium without test compound as a control) to achieve the desired final concentration and the cells were incubated at 37°C for 1 hour. A frozen culture of HIV-1 was diluted in culture medium to a concentration of 5 x 10^4 TCID50 per ml (TCID50 = the dose of virus that infects 50% of cells in tissue culture), and a 20µL volume of the virus sample (containing 1000 TCID50 of virus) was added to wells containing test compound and to wells containing only medium (infected control cells). Several wells received culture medium without virus (uninfected control cells). Likewise, the intrinsic toxicity of the test compound was determined by adding medium without virus to several wells containing test compound.
In experiments 2 and 4 the final concentrations of test compounds were 1, 10, 100 and 500 µg/ml. Either azidothymidine (AZT) or dideoxyinosine (ddI) was included as a positive drug control. […] DMSO was added to all control wells at an appropriate concentration.
Following the addition of virus, cells were incubated at 37°C in a humidified, 5% CO2 atmosphere for 7 days. Test compounds could be added on days 0, 2 and 5 if desired. On day 7, post-infection, the cells in each well were resuspended and a 100µl sample of each cell suspension was removed for assay. A 20µL volume of a 5 mg/ml solution of 3-(4,5-dimethylthiazol-2-yl)-2,5-diphenyltetrazolium bromide (MTT) was added to each 100µL cell suspension, and the cells were incubated for 4 hours at 27°C in a 5% CO2 environment. […] To each sample was added 100µl of 10% sodium dodecylsulfate in 0.01 N HCl to lyse the cells, and samples were incubated overnight. The absorbance at 590 nm was determined for each sample using a Molecular Devices microplate reader. Absorbance values for each set of wells is compared to assess viral control infection, uninfected control cell response as well as test compound by cytotoxicity and antiviral efficacy.

CEM cells = assay: Intrinsic toxicity of the test compound in CEM cells without virus (MTT); assay type: cell-based; details: Table 14, medium without virus, 7 days
From the text: Methods 20, 309-321 (1988).

HIV protease = molecular target: T1, HIV protease (Human immunodeficiency virus type 1 group M subtype B, UniProt P04585); assay: biochemical; assay type: biochemical
T1 construct: HIV protease is diluted in the assay buffer to a final enzyme concentration of 12.3 nanomolar, based on a molecular weight of 10,780
Description: The enzyme method is described below. The substrate is 2-aminobenzoyl-Ile-Nle-Phe(p-NO2)-Gln-ArgNH2. The positive control is MVT-101 (Miller, M. et al, Science, 246, 1149 (1989)] The assay conditions are as follows:
The above described substrate is dissolved in DMSO, then diluted 10 fold in assay buffer. Final substrate concentration in the assay is 80 µM.
HIV protease is diluted in the assay buffer to a final enzyme concentration of 12.3 nanomolar, based on a molecular weight of 10,780.
The final concentration of DMSO is 14% and the final concentration of glycerol is 18%. The test compound is dissolved in DMSO and diluted in DMSO to 10x the test concentration; 10µl of the enzyme preparation is added, the materials mixed and then the mixture is incubated at ambient temperature for 15 minutes. The enzyme reaction is initiated by the addition of 40µl of substrate. The increase in fluorescence is monitored at 4 time points (0, 8, 16 and 24 minutes) at ambient temperature. Each assay is carried out in duplicate wells.

[1] = IC50, Table 13, 12.3 nanomolar enzyme, 80 µM substrate, pH 6.4, ambient temperature
[2] = IC50, Table 14, above-described enzyme assay
[3] = Table 13, 12.3 nanomolar enzyme, 80 µM substrate, pH 6.4, ambient temperature, read-out: IC50

`CCCCNC(=O)N(CC(C)C)C[C@@H](O)[C@H](Cc1ccccc1)NC(=O)[C@H](CC(N)=O)NC(=O)c1ccc2ccccc2n1` [butanediamide N^1[3-[[[n-butylamino]carbonyl](2-methylpropyl)amino]-2-hydroxy-1-(phenylmethyl)propyl]-2-[(2-quinolinylcarbonyl)amino]-[1S-[1R*(R*), 2S*]]-.] was tested, and the pEC50 (HIV-1) was 7.59 and the TD50 (CEM cells) was 53 µM.
In the case of `COc1ccc(COC(=O)NC[C@@H](C)C(=O)N[C@@H](Cc2ccccc2)[C@H](O)CN(CCC(C)C)C(=O)NC(C)(C)C)cc1` [Compound 8, Propanamide, 3-(4-methoxybenzyloxy-carbonyl)amino-N-[3-[[[(11,-dimethylethyl)amino]carbonyl](3-methylbutyl)amino]-2-hydroxy-1-(phenylmethyl)propyl]-2-methyl-, [1S-[1R*(S*),2S*]]-], the pIC50 (HIV protease; [1]) was 8.22.
In the case of `CC(C)CN(CC(O)C(Cc1ccccc1)NC(=O)C(CC(N)=O)NC(=O)c1ccc2ccccc2n1)C(=O)NC(C)(C)C` (stereo not drawn) [Compound 1b, Butanediamide, N^1-[3-[[[(1,1-dimethylethyl)amino]carbonyl](2-methylpropyl)amino]-2-hydroxy-1-(phenylmethyl)propyl]-2-[(2-quinolinylcarbonyl)amino]-, [1S-[1R*(R*),2S*]]-], the pIC50 (HIV protease; [1]) was 8.15, the pIC50 (HIV protease; [2]) was 8.15 and the pEC50 (HIV-1) was 8.00. It also gave a TD50 (CEM cells) of 16 µM.
`CC(C)CCN(CC(O)C(Cc1ccccc1)NC(=O)C(CC(N)=O)NC(=O)c1ccc2ccccc2n1)C(=O)NC(C)(C)C` (stereo not drawn) [Compound 2b, Butanediamide, N^1-[3-[[[(1,1-dimethylethyl)amino]carbonyl](3-methylbutyl)amino]-2-hydroxy-1-(phenylmethyl)propyl]-2-[(2-quinolinylcarbonyl)amino]-, [1S-[1R*(R*),2S*]]-] gave a pIC50 (HIV protease; [1]) of 8.49.
`CC(C)(C)NC(=O)N(CCc1ccccc1)CC(O)C(Cc1ccccc1)NC(=O)C(CC(N)=O)NC(=O)c1ccc2ccccc2n1` (stereo not drawn) [Compound 4b, Butanediamide, N^1-[3-[[[(1,1-dimethylethyl)amino]carbonyl](2-phenylethyl)amino]-2-hydroxy-1-(phenylmethyl)propyl]-2-[(2-quinolinylcarbonyl)amino]-, [1S-[1R*(R*),2S*]]-] showed a pIC50 (HIV protease; [1]) of 8.00, a pIC50 (HIV protease; [2]) of 8.00 and a pEC50 (HIV-1) of 7.55. The TD50 (CEM cells) was 13 µM.
Molecule `CC(C)CCN(CC(O)C(Cc1ccccc1)NC(=O)C(CC(N)=O)NC(=O)c1ccc2ccccc2n1)C(=O)NC(C)(C)C` (stereo not drawn) [Compound 5b, Butanediamide, N^1-[3-[[[(1,1-dimethylethyl)amino]carbonyl](3,3-dimethylpropyl)amino]-2-hydroxy-1-(phenylmethyl)propyl]-2-[(2-quinolinylcarbonyl)amino]-, [1S-[1R*(R*),2S*]]-] has a pIC50 (HIV protease; [3]) of 8.43.
Molecule `CC(C)(C)NC(=O)N(Cc1ccc2ccccc2c1)CC(O)C(Cc1ccccc1)NC(=O)C(CC(N)=O)NC(=O)c1ccc2ccccc2n1` (stereo not drawn) [Compound 3b, Butanediamide, N^1-[3-[[[(1,1-dimethylethyl)amino]carbonyl](2-naphthylmethyl)amino]-2-hydroxy-1-(phenylmethyl)propyl]-2-[(2-quinolinylcarbonyl)amino]-, [1S-[1R*(R*),2S*]]-] has a pIC50 (HIV protease; [3]) of 8.54.
For `CC(C)(C)NC(=O)N(Cc1ccc2ccccc2c1)C[C@@H](O)[C@H](Cc1ccccc1)NC(=O)[C@H](CC(N)=O)NC(=O)OCc1ccccc1` [Compound 3a, Butanediamide, N^1-[3-[[[(1,1-dimethylethyl)amino]carbonyl](2-naphthylmethyl)amino]-2-hydroxy-1-(phenylmethyl)propyl]-2-[(N-benzyloxycarbonyl)amino]-, [1S-[1R*(R*), 2S*]]-], the pIC50 (HIV protease; [3]) was 7.51.
For `CC(C)CCN(C[C@@H](O)[C@H](Cc1ccccc1)NC(=O)[C@H](C)C(C)(C)C(=O)O)C(=O)NC(C)(C)C` [Compound 11, Butanoic acid, 4-[[3-[[[(1,1-dimethylethyl)amino]carbonyl] (3-methylbutyl)amino]-2-hydroxy-1-(phenylmethyl)propyl]amino-2,2,3-trimethyl-4-oxo-, [1S-[1R*(3S*), 2S*]]-], the pIC50 (HIV protease; [1]) was 8.10.
For `CC(=O)NCC(C)C(=O)NC(Cc1ccccc1)C(O)CN(CCC(C)C)C(=O)NC(C)(C)C` (stereo not drawn) [Compound 7, Propanamide, 3-(acetylamino)-N-[3-[[[(11,-dimethylethyl)amino]carbonyl](3-methylbutyl)amino]-2-hydroxy-1-(phenylmethyl)propyl]-2-methyl-, [1S-[1R*(S*),2S*]]-], the pIC50 (HIV protease; [3]) was 7.00.
For `CC(C)(C)NC(=O)N(CCc1ccccc1)CC(O)C(Cc1ccccc1)NC(=O)C(CC(N)=O)NC(=O)OCc1ccccc1` (stereo not drawn) [Compound 4a, Butanediamide, N^1-[3-[[[(1,1-dimethylethyl)amino]carbonyl](2-phenylethyl)amino]-2-hydroxy-1-(phenylmethyl)propyl]-2-[(N-benzyloxycarbonyl)amino]-, [1S-[1R*(R*),2S*]]-], the pIC50 (HIV protease; [3]) was 7.15.
In the case of `CC(C)CCN(C[C@@H](O)[C@H](Cc1ccccc1)NC(=O)[C@H](C)C(C)(C)C(N)=O)C(=O)NC(C)(C)C` [Compound 10, Butanediamide, N^1-[3-[[[(1,1-dimethylethyl)amino]carbonyl](3-methylbutyl)amino]-2-hydroxy-1-(phenylmethyl)propyl]-2,3,3-trimethyl-, [1S-[1R*(2S*),2S*]]-], the pIC50 (HIV protease; [3]) was 7.92.
For `CC(=O)N[C@H](C(=O)N[C@@H](Cc1ccccc1)[C@H](O)CN(CCC(C)C)C(=O)NC(C)(C)C)C(C)(C)C` [Compound 12, Butaneamide,2-(acetylamino)-N-[3-[[[(1,1-dimethylethyl)amino]-carbonyl](3-methylbutyl)amino]-2-hydroxy-1-(phenylmethyl)propyl]-3,3-dimethyl-, [1S-[1R*(R*),2S*]]-], the pIC50 (HIV protease; [3]) was 7.74.
`NC(=O)CC(NC(=O)c1ccc2ccccc2n1)C(=O)NC(Cc1ccccc1)C(O)CN(Cc1ccc(F)cc1)C(=O)N1CCCC1` (stereo not drawn) [Compound 9, Butanediamide, N^1-[2-hydroxy-3-[(4-fluorophenylmethyl)(1-pyrrolidinylcarbonyl)amino]-1-(phenylmethyl)propyl]-2-[(2-quinolinylcarbonyl)amino]-, [1S-[1R*(R*),2S*]]-] was tested, and the pIC50 (HIV protease; [3]) was 8.15.
For `CC(C)CCN(CC(O)C(Cc1ccccc1)NC(=O)C(C)CS(C)(=O)=O)C(=O)NC(C)(C)C` (stereo not drawn) [Compound 6, Propanamide, N-[3-[[[(1,1-dimethylethyl)amino]carbonyl](3-methylbutyl)amino]-2-hydroxy-1-(phenylmethyl)propyl]-2-methyl-3-(methylsulfonyl)-, [1S-[1R*(R*), 2S*]]-], the pIC50 (HIV protease; [3]) was 7.54.
Work on `CC(C)CCN(C[C@@H](O)[C@H](Cc1ccccc1)NC(=O)[C@H](CC(N)=O)NC(=O)OCc1ccccc1)C(=O)NC(C)(C)C` (relative stereo) [Compound 5a, Butanediamide, N^1-[3-[[[(1,1-dimethylethyl)amino]carbonyl](3,3-dimethylpropyl)amino]-2-hydroxy-1-(phenylmethyl)propyl]-2-[(N-benzyloxycarbonyl)amio], [1S-[1R*(R*),2S*]]-] yielded a pIC50 (HIV protease; Table 13, 12.3 nanomolar enzyme, 80 µM substrate, pH 6.4, ambient temperature) of 7.74.
`CC(C)CCN(C[C@@H](O)[C@H](Cc1ccccc1)NC(=O)[C@H](CC(N)=O)NC(=O)OCc1ccccc1)C(=O)NC(C)(C)C` [Compound 2a, Butanediamide, N^1-[3-[[[(1,1-dimethylethyl)amino]carbonyl](3-methylbutyl)amino]-2-hydroxy-1-(phenylmethyl)propyl]-2-[(N-benzyloxycarbonyl)amino], [1S-[1R*(R*),2S*]]-] showed a pIC50 (HIV protease; [3]) of 7.87.
With `CCCCNC(=O)N(CC(C)C)C[C@@H](O)[C@H](Cc1ccccc1)NC(=O)[C@H](CC(N)=O)NC(=O)OCc1ccccc1` the pEC50 (HIV-1) was 4.77 and the TD50 (CEM cells) was 170 to 180 µM.
